ChEMBL document CHEMBL1201862, “PubChem BioAssay data set” (2004)
Active and inactive are the calls of the source.

What was measured:
[1] = target: Voltage-gated inwardly rectifying potassium channel KCNH2 (Homo sapiens, UniProt Q12809); conditions: Potency;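 also: confirmatory quantitative high-throughput screen measuring inhibition of hERG channel activity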
[2] = target: 5-hydroxytryptamine receptor 2A (Mus musculus, UniProt P35363); format: functional, cell-based;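 also: CHO-K1 cells with tagged receptor and beta-arrestin; agonist potency measured as compound-induced activation of the receptor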
Chain of 5-hydroxytryptamine receptor 2A (P35363 whole entry): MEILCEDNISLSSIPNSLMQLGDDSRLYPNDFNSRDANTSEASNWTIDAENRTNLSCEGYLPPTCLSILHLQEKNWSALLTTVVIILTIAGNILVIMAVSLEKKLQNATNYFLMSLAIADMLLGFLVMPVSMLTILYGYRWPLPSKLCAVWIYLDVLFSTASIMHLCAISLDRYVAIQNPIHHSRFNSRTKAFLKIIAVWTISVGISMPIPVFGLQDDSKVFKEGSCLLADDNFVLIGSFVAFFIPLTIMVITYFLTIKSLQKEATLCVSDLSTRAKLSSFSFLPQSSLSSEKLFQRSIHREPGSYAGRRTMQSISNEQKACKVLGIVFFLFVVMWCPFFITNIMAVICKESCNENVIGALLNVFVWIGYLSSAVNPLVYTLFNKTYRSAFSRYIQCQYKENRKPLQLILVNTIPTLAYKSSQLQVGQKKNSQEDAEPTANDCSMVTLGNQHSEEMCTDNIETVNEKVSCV

[3] = target: Mu-type opioid receptor (Homo sapiens, UniProt P35372); format: functional, cell-based;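 also: U2OS cells with beta-arrestin recruitment to OPRM1 by beta-gal complementation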
Chain of Mu-type opioid receptor (P35372 whole entry, the tested form may be a part): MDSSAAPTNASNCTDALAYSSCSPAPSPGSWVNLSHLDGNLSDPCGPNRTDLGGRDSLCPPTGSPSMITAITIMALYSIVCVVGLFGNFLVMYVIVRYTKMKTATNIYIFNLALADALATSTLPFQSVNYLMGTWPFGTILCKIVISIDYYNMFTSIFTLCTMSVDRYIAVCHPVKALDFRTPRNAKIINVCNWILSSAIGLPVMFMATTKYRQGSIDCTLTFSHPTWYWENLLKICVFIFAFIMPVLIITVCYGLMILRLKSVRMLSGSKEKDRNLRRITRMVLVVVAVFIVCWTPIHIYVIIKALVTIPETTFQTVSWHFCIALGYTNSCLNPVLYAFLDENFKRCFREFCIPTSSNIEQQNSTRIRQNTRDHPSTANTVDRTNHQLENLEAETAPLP

[4] = target: T1, Fatty acid synthase (Homo sapiens, UniProt P49327); experiment: FAS thioesterase domain inhibitors, dose response, biochemical, endpoint fluorescence intensity, uHTS hits (AID 624327); format: functional;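 also: fluorescence from hydrolysis of an O-methyl fluorescein acyl ester substrate by the enzyme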
T1 sequence (P49327 whole entry, the tested form may be a part): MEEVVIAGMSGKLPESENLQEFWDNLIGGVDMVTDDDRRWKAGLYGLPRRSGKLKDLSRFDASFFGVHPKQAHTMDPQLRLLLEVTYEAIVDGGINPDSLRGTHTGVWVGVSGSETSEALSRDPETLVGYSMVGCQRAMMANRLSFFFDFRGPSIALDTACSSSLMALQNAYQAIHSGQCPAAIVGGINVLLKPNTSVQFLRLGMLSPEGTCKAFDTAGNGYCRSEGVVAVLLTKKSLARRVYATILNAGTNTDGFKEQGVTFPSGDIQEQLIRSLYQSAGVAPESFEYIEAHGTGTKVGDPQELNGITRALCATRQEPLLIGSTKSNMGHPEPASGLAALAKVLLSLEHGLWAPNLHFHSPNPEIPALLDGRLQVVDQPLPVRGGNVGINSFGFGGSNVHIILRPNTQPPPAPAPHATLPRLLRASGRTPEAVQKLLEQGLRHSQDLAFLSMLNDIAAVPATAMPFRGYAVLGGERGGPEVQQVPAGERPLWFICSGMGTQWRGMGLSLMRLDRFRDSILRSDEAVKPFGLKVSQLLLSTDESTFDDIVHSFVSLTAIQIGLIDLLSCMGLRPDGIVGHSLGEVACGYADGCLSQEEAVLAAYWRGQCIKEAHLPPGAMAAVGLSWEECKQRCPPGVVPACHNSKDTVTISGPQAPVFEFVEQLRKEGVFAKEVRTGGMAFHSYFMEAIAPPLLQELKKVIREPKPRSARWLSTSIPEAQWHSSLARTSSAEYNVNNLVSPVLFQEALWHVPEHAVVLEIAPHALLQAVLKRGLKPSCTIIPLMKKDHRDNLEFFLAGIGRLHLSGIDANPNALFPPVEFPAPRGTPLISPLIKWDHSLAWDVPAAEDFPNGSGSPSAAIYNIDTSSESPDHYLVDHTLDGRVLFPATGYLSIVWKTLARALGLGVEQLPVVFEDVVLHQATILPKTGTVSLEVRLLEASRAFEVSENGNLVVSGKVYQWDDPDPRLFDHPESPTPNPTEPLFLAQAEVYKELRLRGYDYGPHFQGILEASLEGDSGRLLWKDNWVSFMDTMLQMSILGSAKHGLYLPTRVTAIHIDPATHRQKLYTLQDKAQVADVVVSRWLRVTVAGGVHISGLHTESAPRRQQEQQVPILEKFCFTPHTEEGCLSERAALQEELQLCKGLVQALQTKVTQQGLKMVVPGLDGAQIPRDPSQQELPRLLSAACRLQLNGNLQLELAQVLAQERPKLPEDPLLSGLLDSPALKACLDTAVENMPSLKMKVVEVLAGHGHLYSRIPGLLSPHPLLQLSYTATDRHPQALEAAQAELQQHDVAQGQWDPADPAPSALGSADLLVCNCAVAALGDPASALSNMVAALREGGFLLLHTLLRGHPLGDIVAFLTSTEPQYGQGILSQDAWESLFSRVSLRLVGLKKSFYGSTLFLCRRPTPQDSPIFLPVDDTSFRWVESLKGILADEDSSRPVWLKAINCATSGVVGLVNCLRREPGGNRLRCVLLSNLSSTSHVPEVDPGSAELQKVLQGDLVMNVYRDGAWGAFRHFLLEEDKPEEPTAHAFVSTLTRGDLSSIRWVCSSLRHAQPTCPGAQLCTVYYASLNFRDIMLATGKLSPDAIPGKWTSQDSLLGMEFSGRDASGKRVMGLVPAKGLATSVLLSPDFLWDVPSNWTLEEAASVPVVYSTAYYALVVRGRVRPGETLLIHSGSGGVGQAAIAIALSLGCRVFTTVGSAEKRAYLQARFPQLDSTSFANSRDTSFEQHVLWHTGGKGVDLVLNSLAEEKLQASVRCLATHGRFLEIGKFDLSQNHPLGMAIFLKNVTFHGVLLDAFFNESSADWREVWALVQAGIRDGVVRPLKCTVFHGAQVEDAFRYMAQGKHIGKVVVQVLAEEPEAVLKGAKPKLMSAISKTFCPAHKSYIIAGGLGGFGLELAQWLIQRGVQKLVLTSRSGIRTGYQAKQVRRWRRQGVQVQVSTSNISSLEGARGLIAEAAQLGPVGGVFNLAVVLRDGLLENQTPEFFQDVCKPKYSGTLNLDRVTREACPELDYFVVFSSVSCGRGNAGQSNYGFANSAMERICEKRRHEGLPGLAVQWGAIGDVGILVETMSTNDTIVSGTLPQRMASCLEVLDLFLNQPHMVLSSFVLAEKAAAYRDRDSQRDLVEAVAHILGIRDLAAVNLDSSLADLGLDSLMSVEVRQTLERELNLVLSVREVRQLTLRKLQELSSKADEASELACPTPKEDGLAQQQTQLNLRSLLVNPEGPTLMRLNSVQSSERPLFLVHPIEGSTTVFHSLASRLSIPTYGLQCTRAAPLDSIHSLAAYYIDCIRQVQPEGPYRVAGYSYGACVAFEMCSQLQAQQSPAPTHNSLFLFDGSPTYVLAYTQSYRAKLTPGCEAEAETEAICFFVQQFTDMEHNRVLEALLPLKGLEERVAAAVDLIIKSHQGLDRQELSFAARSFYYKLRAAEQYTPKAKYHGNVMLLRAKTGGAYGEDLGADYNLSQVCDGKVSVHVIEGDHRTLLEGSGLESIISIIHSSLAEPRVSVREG

[5] = target: Palmitoyl-protein thioesterase ABHD10, mitochondrial (Mus musculus, UniProt Q6PE15); experiment: Late stage assay provider results from the probe development effort to identify inhibitors of PME-1: fluorescence-based dose response biochemical gel-based competitive Activity-Based Protein Profiling (ABPP) inhibition of ABHD10 Set 2.; format: functional
Chain of Palmitoyl-protein thioesterase ABHD10, mitochondrial (Q6PE15 whole entry, the tested form may be a part): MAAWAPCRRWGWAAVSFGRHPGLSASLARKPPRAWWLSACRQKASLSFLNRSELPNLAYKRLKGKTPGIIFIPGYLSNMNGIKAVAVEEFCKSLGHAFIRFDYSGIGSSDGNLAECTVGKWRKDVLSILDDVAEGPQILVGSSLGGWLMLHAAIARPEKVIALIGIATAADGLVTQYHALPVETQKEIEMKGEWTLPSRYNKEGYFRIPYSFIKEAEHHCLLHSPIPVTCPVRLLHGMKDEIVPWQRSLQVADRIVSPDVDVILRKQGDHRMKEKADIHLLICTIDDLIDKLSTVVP

[6] = target: T1, Fatty acid synthase; experiment: FAS thioesterase domain inhibitors, dose response, biochemical, kinetic fluorescence intensity (AID 624326); format: functional;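 also: rate of fluorescence rise from hydrolysis of a fluorogenic O-methyl fluorescein ester substrate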
[7] = target: T2, Corticotropin-releasing factor receptor 2/Corticotropin-releasing factor-binding protein (Homo sapiens, UniProt P24387+Q13324); experiment: activators of CRF receptor 2 with binding protein – uHTS hits, confirmation (AID 602473); format: functional; conditions: read-out: EC50_Mean
T2 sequence (Q13324 whole entry): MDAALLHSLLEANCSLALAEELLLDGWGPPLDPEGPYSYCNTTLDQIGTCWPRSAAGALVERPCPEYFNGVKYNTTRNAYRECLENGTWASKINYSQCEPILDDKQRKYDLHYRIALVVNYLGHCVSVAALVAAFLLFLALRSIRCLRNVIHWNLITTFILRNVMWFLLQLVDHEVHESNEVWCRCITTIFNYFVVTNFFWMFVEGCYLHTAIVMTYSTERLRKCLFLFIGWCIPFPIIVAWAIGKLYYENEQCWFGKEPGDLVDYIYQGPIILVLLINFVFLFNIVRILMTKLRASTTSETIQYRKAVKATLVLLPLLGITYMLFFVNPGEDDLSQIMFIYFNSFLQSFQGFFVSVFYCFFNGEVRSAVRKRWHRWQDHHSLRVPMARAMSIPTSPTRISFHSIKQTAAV
T2 sequence (P24387 whole entry): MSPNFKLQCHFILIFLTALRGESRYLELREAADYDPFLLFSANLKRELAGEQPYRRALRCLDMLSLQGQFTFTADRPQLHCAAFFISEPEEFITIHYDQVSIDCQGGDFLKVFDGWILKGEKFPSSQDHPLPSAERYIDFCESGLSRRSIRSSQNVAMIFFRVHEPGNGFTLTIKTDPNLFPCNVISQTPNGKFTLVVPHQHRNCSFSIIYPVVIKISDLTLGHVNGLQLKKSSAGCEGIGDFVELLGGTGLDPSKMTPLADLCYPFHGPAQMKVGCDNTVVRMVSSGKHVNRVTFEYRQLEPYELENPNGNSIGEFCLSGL

[8] = target: T2, Corticotropin-releasing factor receptor 2/Corticotropin-releasing factor-binding protein; experiment: Dose Response confirmation of uHTS hits for small molecule antagonists of the CRF-binding protein and CRF-R2 receptor complex.; format: functional; conditions: read-out: IC50_Mean
[9] = CRF-BP/CRF-R2 complex antagonists, dose response, cell-based, uHTS hits, 384-well (AID 651639); format: functional, Homo sapiens; conditions: read-out: IC50_Mean
[10] = tested on: HEK293; experiment: optical interference in Abeta FP readout, dose response, artefact control for IDE activator project, biochemical, fluorescence polarization (AID 588442); format: functional, cell-based; conditions: Homo sapiens
[11] = tested on: HEK293; experiment: HEK cell cytotoxicity by LDH release, dose response, cytotoxicity control for IDE activator project, fluorescence, HEK cells (AID 588440); format: functional, cell-based; conditions: Homo sapiens;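 also: cytotoxicity by LDH release measuring loss of membrane integrity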
[12] = target: T3, Insulin-degrading enzyme (Homo sapiens, UniProt P14735); experiment: activators of recombinant IDE enzyme, dose response, counter-screen for IDE activator project, biochemical, fluorescence polarization (AID 588681)
T3 sequence (P14735 whole entry): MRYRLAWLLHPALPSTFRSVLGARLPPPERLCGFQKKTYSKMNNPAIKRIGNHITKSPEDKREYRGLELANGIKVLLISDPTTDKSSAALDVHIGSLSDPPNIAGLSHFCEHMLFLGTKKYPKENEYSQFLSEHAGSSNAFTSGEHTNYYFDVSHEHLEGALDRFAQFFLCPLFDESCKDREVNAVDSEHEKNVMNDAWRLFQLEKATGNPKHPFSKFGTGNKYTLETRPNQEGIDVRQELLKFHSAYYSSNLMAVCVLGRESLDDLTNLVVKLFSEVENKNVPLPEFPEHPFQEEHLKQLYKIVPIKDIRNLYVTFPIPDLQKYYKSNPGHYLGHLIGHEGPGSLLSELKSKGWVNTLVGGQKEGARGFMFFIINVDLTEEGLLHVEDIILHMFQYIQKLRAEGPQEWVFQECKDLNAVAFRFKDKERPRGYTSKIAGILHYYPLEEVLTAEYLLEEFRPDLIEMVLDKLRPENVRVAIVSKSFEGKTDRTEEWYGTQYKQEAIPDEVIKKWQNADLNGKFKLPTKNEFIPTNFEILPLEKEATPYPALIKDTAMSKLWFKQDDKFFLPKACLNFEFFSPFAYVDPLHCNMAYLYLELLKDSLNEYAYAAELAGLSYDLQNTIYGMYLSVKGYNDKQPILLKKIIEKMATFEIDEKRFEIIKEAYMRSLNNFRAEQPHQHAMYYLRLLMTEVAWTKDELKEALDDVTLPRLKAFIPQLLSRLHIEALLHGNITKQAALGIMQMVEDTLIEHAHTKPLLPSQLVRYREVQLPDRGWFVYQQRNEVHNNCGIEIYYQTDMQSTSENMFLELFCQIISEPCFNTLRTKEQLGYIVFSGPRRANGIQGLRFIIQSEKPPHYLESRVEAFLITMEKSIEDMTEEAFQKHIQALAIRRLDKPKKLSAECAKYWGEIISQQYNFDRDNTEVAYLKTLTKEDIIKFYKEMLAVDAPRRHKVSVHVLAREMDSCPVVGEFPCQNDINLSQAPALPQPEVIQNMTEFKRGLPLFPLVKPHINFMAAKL

[13] = target: Beta-lactamase (Salmonella choleraesuis (strain SC-B67), UniProt Q5J463)
Chain of Beta-lactamase (Salmonella choleraesuis (strain SC-B67), UniProt Q5J463) (Q5J463 whole entry): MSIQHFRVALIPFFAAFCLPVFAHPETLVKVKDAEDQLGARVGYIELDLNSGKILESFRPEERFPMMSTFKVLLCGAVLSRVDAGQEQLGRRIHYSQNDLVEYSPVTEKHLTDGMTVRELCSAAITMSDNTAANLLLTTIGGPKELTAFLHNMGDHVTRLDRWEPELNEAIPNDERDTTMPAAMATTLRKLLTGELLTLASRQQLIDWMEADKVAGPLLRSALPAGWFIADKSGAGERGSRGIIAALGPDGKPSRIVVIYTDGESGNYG

[14] = target: T3, Insulin-degrading enzyme; experiment: activators of endogenous IDE in HEK cells, dose response, cell-based, fluorescence polarization (AID 588439); format: functional
[15] = target: Beta-lactamase (Pseudomonas aeruginosa, UniProt Q79MP6);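 also: biochemical dose-response test of metallo-beta-lactamase enzyme inhibition, read out by epi-absorbance; purified recombinant IMP-1 metallo-beta-lactamase with nitrocefin as substrate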
Chain of Beta-lactamase (Pseudomonas aeruginosa, UniProt Q79MP6) (Q79MP6 whole entry): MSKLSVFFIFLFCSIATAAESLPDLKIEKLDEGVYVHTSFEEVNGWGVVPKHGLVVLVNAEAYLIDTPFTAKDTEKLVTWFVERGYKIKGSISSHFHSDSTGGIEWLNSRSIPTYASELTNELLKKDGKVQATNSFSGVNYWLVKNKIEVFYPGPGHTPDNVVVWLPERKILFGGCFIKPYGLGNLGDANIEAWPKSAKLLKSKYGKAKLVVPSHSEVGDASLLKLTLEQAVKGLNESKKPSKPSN

CN1CCc2cc(O)c(O)cc2C(c2ccccc2)C1 (stereo not given)
AC50 [1]: 35.5 µM (inconclusive)
EC50 [2]: 1.36 µM (active)
EC50 [3]: 92.5 µM (inactive)

CC[C@@]1(c2cccc(C)c2)C(=O)N(C(=O)OC)N1C(=O)OC
IC50 [4]: 6.22 µM (active)
IC50 [5]: 0.413 µM (active)
IC50 [6]: 5.96 µM (active)

CCOc1cc(-c2cn(S(=O)(=O)c3cccc4nsnc34)nc2N)cc(OCC)c1OCC
EC50 [7]: > 53 µM (inactive)
IC50 [8]: 21.1 µM (active)
IC50 [9]: > 20 µM (inactive)

N#CC(C#N)=C1C=C2C=C(N3CCCCCC3)CCC2CC1 (stereo not given)
EC50 [10]: > 54.7 µM (inactive)
IC50 [11]: > 89.1 µM (inactive)
EC50 [12]: > 54.7 µM (inactive)
IC50 [13]: 1.04 µM (active)
EC50 [14]: > 54.7 µM (inactive)
IC50 [15]: 2.78 µM (active)
